Assay results reported in ChEMBL document CHEMBL3102758, “Structure-activity relationship study of BACE1 inhibitors possessing a chelidonic or 2,6-pyridinedicarboxylic scaffold at the P(2) position” (Bioorg Med Chem Lett, 2014).

Columns and labels:
[1] = molecular target: T1, Beta-secretase 1 (Homo sapiens, UniProt P56817); test: Inhibition of recombinant human BACE1 using (7-methoxycoumarin-4-yl)acetyl-SEVNL*DAEFRK(2,4-dinitrophenyl)-RR-NH2) as substrate at 2 uM by FRET assay
[2] = molecular target: T1, Beta-secretase 1; test: Inhibition of recombinant human BACE1 using (7-methoxycoumarin-4-yl)acetyl-SEVNL*DAEFRK(2,4-dinitrophenyl)-RR-NH2) as substrate by FRET assay
[3] = molecular target: T1, Beta-secretase 1; test: Inhibition of recombinant human BACE1 using (7-methoxycoumarin-4-yl)acetyl-SEVNL*DAEFRK(2,4-dinitrophenyl)-RR-NH2) as substrate at 0.2 uM by FRET assay

T1 sequence (P56817 whole entry): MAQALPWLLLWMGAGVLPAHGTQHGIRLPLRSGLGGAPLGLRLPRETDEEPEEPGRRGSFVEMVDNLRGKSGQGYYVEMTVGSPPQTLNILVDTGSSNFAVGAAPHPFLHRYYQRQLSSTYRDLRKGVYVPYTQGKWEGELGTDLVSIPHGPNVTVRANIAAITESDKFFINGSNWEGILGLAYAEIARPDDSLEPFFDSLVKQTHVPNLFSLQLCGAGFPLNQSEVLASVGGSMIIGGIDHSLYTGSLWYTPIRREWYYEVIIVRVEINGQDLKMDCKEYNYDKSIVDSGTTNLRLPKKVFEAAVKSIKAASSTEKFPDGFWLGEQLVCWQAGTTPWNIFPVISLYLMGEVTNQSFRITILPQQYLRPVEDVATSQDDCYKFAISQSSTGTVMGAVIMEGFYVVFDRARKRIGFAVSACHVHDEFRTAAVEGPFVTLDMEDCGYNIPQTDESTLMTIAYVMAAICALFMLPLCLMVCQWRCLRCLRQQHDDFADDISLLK

Row | Compound | inhibition [1] | IC50 [2] | inhibition [3]
1 | C[C@@H](NC(=O)c1cc(OS(=O)(=O)Cc2ccccc2)cc(C(=O)N[C@@H](Cc2ccccc2)[C@H](O)C(=O)Nc2cccc(-c3nn[nH]n3)c2)n1)c1ccccc1 | 29% | – | –
2 | C[C@@H](NC(=O)c1cc(=O)cc(C(=O)N[C@@H](Cc2ccccc2)[C@H](O)C(=O)Nc2cccc(-c3nn[nH]n3)c2)o1)c1ccc(F)cc1 | 76% | – | –
3 | C[C@@H](NC(=O)c1cc(=O)cc(C(=O)N[C@@H](Cc2ccccc2)[C@H](O)C(=O)Nc2cccc(-c3nn[nH]n3)c2)o1)C1CCCCC1 | 26% | – | –
4 | CCCN(CCC)C(=O)c1cc(=O)cc(C(=O)N[C@@H](Cc2ccccc2)[C@@H](O)C(=O)Nc2cccc(-c3noc(=O)[nH]3)c2)o1 | 23% | – | –
5 | C[C@@H](NC(=O)c1cc(=O)cc(C(=O)N[C@@H](Cc2ccccc2)[C@H](O)C(=O)Nc2cccc(-c3nn[nH]n3)c2)o1)c1ccc(Cl)cc1 | 61% | – | –
6 | CCCN(CCC)C(=O)c1cc(=O)cc(C(=O)N[C@@H](Cc2ccccc2)[C@@H](O)C(=O)Nc2cccc(C(=O)O)c2)o1 | 10% | – | –
7 | Cc1ccc([C@@H](C)NC(=O)c2cc(=O)cc(C(=O)N[C@@H](Cc3ccccc3)[C@H](O)C(=O)Nc3cccc(-c4nn[nH]n4)c3)o2)cc1 | 54% | – | –
8 | CCOc1cc(C(=O)N[C@@H](Cc2ccccc2)[C@H](O)C(=O)Nc2cccc(-c3nn[nH]n3)c2)nc(C(=O)N[C@H](C)c2ccccc2)c1 | 46% | – | –
9 | COc1cc(C(=O)N[C@@H](Cc2ccccc2)[C@H](O)C(=O)Nc2cccc(-c3nn[nH]n3)c2)nc(C(=O)NC(C)(C)c2ccccc2)c1 | 74% | – | –
10 | CN(NC(=O)c1cc(=O)cc(C(=O)N[C@@H](Cc2ccccc2)[C@H](O)C(=O)Nc2cccc(-c3nn[nH]n3)c2)o1)c1ccccc1 | 21% | – | –
11 | CCCN(CCC)C(=O)c1cc(=O)cc(C(=O)N[C@@H](Cc2ccccc2)[C@@H](O)C(=O)Nc2cccc(-c3nnn[nH]3)c2)o1 | 60% | – | –
12 | O=C(N[C@@H](CO)c1ccccc1)c1cc(=O)cc(C(=O)N[C@@H](Cc2ccccc2)[C@H](O)C(=O)Nc2cccc(-c3nn[nH]n3)c2)o1 | 11% | – | –
13 | C[C@@H](NC(=O)c1cc(=O)cc(C(=O)N[C@@H](Cc2ccccc2)[C@H](O)C(=O)Nc2cccc(-c3nn[nH]n3)c2)o1)c1ccc([N+](=O)[O-])cc1 | 51% | – | –
14 | O=C(NCc1ccccc1)c1cc(=O)cc(C(=O)N[C@@H](Cc2ccccc2)[C@H](O)C(=O)Nc2cccc(-c3nn[nH]n3)c2)o1 | 25% | – | –
15 | COc1cccc([C@@H](C)NC(=O)c2cc(=O)cc(C(=O)N[C@@H](Cc3ccccc3)[C@H](O)C(=O)Nc3cccc(-c4nn[nH]n4)c3)o2)c1 | 48% | – | –
16 | O=C(N[C@@H](Cc1ccccc1)[C@H](O)C(=O)Nc1cccc(-c2nn[nH]n2)c1)c1cc(=O)cc(C(=O)N(Cc2ccccc2)Cc2ccccc2)o1 | 29% | – | –
17 | CC[C@@H](NC(=O)c1cc(=O)cc(C(=O)N[C@@H](Cc2ccccc2)[C@H](O)C(=O)Nc2cccc(-c3nn[nH]n3)c2)o1)c1ccccc1 | 32% | – | –
18 | CN(Cc1ccccc1)C(=O)c1cc(=O)cc(C(=O)N[C@@H](Cc2ccccc2)[C@H](O)C(=O)Nc2cccc(-c3nn[nH]n3)c2)o1 | 67% | – | –
19 | COc1ccc([C@@H](C)NC(=O)c2cc(=O)cc(C(=O)N[C@@H](Cc3ccccc3)[C@H](O)C(=O)Nc3cccc(-c4nn[nH]n4)c3)o2)cc1 | 70% | – | –
20 | C[C@H](NC(=O)c1cc(=O)cc(C(=O)N[C@@H](Cc2ccccc2)[C@H](O)C(=O)Nc2cccc(-c3nn[nH]n3)c2)o1)c1ccccc1 | 25% | – | –
21 | C[C@@H](NC(=O)c1cc(=O)cc(C(=O)N[C@@H](Cc2ccccc2)[C@H](O)C(=O)Nc2cccc(-c3nn[nH]n3)c2)o1)c1cccc(F)c1 | 62% | – | –
22 | CCCN(CCC)C(=O)c1cc(=O)cc(C(=O)N[C@@H](Cc2ccccc2)[C@H](O)C(=O)Nc2cccc(-c3nnn[nH]3)c2)o1 | 6% | – | –
23 | O=C(NC(c1ccccc1)c1ccccc1)c1cc(=O)cc(C(=O)N[C@@H](Cc2ccccc2)[C@H](O)C(=O)Nc2cccc(-c3nn[nH]n3)c2)o1 | 13% | – | –
24 | CCOc1cc(C(=O)N[C@@H](Cc2ccccc2)[C@H](O)C(=O)Nc2cccc(-c3nn[nH]n3)c2)nc(C(=O)NC(C)(C)c2ccccc2)c1 | 42% | – | –

The next lines start with the values.

Row | inhibition [1] | IC50 [2] | inhibition [3] | Compound
25 | 82% | – | – | CSc1cc(C(=O)N[C@@H](Cc2ccccc2)[C@H](O)C(=O)Nc2cccc(-c3nn[nH]n3)c2)nc(C(=O)N[C@H](C)c2ccccc2)c1
26 | 85% | – | – | CSc1cc(C(=O)N[C@@H](Cc2ccccc2)[C@H](O)C(=O)Nc2cccc(-c3nn[nH]n3)c2)nc(C(=O)NC(C)(C)c2ccccc2)c1
27 | 79% | – | – | CCOc1cc(C(=O)N[C@@H](Cc2ccccc2)[C@H](O)C(=O)Nc2cccc(-c3nn[nH]n3)c2)nc(C(=O)N2COC[C@@H]2c2ccccc2)c1
28 | 91% | 151 nM | 53% | COc1cc(C(=O)N[C@@H](Cc2ccccc2)[C@H](O)C(=O)Nc2cccc(-c3nn[nH]n3)c2)nc(C(=O)N2COC[C@@H]2c2ccccc2)c1
29 | 72% | – | – | CC(C)Sc1cc(C(=O)N[C@@H](Cc2ccccc2)[C@H](O)C(=O)Nc2cccc(-c3nn[nH]n3)c2)nc(C(=O)N2COC[C@@H]2c2ccccc2)c1
30 | 95% | 79 nM | 68% | [N-]=[N+]=Nc1cc(C(=O)N[C@@H](Cc2ccccc2)[C@H](O)C(=O)Nc2cccc(-c3nn[nH]n3)c2)nc(C(=O)N2COC[C@@H]2c2ccccc2)c1
31 | 95% | – | 68% | Cc1cc(C(=O)N[C@@H](Cc2ccccc2)[C@H](O)C(=O)Nc2cccc(-c3nn[nH]n3)c2)nc(C(=O)N2COC[C@@H]2c2ccccc2)c1
32 | 64% | – | – | CCCOc1cc(C(=O)N[C@@H](Cc2ccccc2)[C@H](O)C(=O)Nc2cccc(-c3nn[nH]n3)c2)nc(C(=O)N2COC[C@@H]2c2ccccc2)c1
33 | 95% | 89 nM | 66% | CSc1cc(C(=O)N[C@@H](Cc2ccccc2)[C@H](O)C(=O)Nc2cccc(-c3nn[nH]n3)c2)nc(C(=O)N2COC[C@@H]2c2ccccc2)c1
34 | 73% | – | – | COc1cc(C(=O)N[C@@H](Cc2ccccc2)[C@H](O)C(=O)Nc2cccc(-c3nn[nH]n3)c2)nc(C(=O)N[C@H](C)c2ccccc2)c1
35 | 78% | – | 53% | Nc1cc(C(=O)N[C@@H](Cc2ccccc2)[C@H](O)C(=O)Nc2cccc(-c3nn[nH]n3)c2)nc(C(=O)N2COC[C@@H]2c2ccccc2)c1
36 | 75% | – | – | CN(c1cc(C(=O)N[C@@H](Cc2ccccc2)[C@H](O)C(=O)Nc2cccc(-c3nn[nH]n3)c2)nc(C(=O)N2COC[C@@H]2c2ccccc2)c1)S(C)(=O)=O
